Assay results published in US20230282357A1, “ACUTE LIVER PATIENT MANAGEMENT” (MERIDIAN BIOSCIENCE ISRAEL LTD., priority 2020, published 2023).
Read-outs that look alike come from different tables or passages of the source.

Assays:
[1] = human, in vivo
CYP1A2 metabolism [2] = molecular target: T1, CYP1A2 metabolism (Homo sapiens, UniProt P05177); experiment: 13C-methacetin breath test (MBT), PDR-peak in ALF/ALI patients
T1 sequence (P05177 1-516): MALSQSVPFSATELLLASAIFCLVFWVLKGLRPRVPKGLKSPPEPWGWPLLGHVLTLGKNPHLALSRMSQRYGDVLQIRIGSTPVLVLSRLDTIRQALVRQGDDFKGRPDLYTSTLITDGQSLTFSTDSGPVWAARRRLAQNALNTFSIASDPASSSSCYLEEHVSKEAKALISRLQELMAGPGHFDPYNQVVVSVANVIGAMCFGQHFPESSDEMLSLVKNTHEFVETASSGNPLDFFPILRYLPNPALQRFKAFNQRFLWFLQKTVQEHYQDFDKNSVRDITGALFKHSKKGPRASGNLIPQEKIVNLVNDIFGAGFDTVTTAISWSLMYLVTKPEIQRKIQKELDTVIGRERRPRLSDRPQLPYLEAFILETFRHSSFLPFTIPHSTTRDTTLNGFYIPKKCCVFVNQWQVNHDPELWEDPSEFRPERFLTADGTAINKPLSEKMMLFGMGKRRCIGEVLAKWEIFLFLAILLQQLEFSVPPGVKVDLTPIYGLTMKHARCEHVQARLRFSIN
Procedure: (§1) A ^13C-methacetin breath test (MBT), which assays CYP1A2 metabolism, for assessing functional liver capacity and its changes over time, was utilized to predict transplant-free survival.
(§2) Method: Eligible patients with ALF or non-acetaminophen (APAP) ALI underwent ^13C-MBT at day 1, 2, 3, 5 and 7 after enrollment, unless discharged, transplanted or died. 75 mg of ^13C-methacetin was administered orally or via a nasogastric tube, and exhaled ^13CO2 measured for up to 60 minutes using the BreathID® (Exalenz Bioscience Ltd., Modi’in, Israel). The percent dose recovery (PDR) peak was determined on day 1 or 2 and correlated with 21-day outcome.

CYP1A2 metabolism [3] = molecular target: T1, CYP1A2 metabolism; conditions: in vivo
Procedure: as §1, §2

SMILES: CC(=O)Nc1ccc(O[13CH3])cc1 [^13C-methacetin]
- de-novo or worsening serum cysteine-APAP protein adduct levels on serial testing [1]: None of the first 20 patients
- serious adverse events attributable to test device or substrate [1]: no serious adverse events
- AUROC of PDR-peak as predictor of 21-day transplant free survival (CYP1A2 metabolism [2]; 42 ALF patients, Day 1 or 2 PDR-peak values): 0.82 (95% CI 0.68-0.96)
- AUROC of PDR-peak as predictor of 21-day transplant free survival (CYP1A2 metabolism [2]; 42 ALF patients, combined with the ALFSG prognostic index): 0.93
- AUROC of PDR-peak as predictor of 21-day transplant free survival (CYP1A2 metabolism [2]; 42 ALF patients, with inclusion of ALF etiology): 0.89 (95% CI 0.79-0.98)
- AUROC of PDR-peak as predictor of 21-day transplant free survival (CYP1A2 metabolism [2]; 56 ALF and ALI patients, day 1 or 2 measures): 0.88 (95% CI 0.79-0.97)
- AUROC of PDR-peak as predictor of 21-day transplant free survival (CYP1A2 metabolism [2]; 56 ALF and ALI patients, with inclusion of the etiology of ALI/ALF): 0.92 (95% CI 0.85-0.99)
- serial PDR peak results (CYP1A2 metabolism [2]; ALF DILI patient who survived without transplant, FIG. 6): improved from day 2 through day 7
- day 1 or 2 mean PDR-peak (CYP1A2 metabolism [2]; transplant-free survivors (TFS), 75 mg orally or via nasogastric tube, exhaled 13CO2 up to 60 minutes): 9.2 %/h
- mean serial PDR-peaks, TFS vs non-TFS (CYP1A2 metabolism [3]): consistently higher
- serial PDR peak results (CYP1A2 metabolism [3]): very low PDR-peak during the entire period
